Measurements from US6737383B1, “Herbicidal oxadiazolidines” (priority 1999, dated 2004).

Experiments:
[1] = system: pigweed; test: Test B pre/postemergence pigweed; format: in vivo, Amaranthus retroflexus
Method in brief: (§1)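 Herbicidal effect was estimated by eye on a ten-point control scale after plants spent twelve to sixteen days in a greenhouse following soil or foliar treatment. Foliar sprays targeted plants at one to four leaves; all doses were formulated in a non-phytotoxic solvent with surfactant.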

[2] = system: smallflower flatsedge; test: Test B flood test smallflower flatsedge; format: in vivo, Cyperus difformis
Method in brief: (§2)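 Read-out is a visual response score from 0 (no effect) to 10 (complete control), assigned by comparison with untreated controls. Treatment was applied at the 2-leaf stage, and plants stayed in the greenhouse for twelve to sixteen days before scoring.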

[3] = system: bedstraw; test: Test B pre/postemergence bedstraw; format: in vivo, Galium aparine
Method in brief: as §1

[4] = system: purple nutsedge; test: Test B pre/postemergence purple nutsedge; format: in vivo, Cyperus rotundus; details: for Nutsedge plant response rating: Postemergence; for Plant response rating, Nutsedge: Preemergence
Method in brief: as §1

[5] = system: rice; test: Test B flood test rice; format: in vivo, Oryza sativa
Method in brief: as §2

[6] = system: sugar beet; test: Test B pre/postemergence sugar beet; format: in vivo, Beta vulgaris
Method in brief: as §1

[7] = system: bamyardgrass; test: Test B flood test barnyardgrass; format: in vivo, Echinochloa crus-galli
Method in brief: as §2

[8] = system: surinam grass; test: Test B pre/postemergence surinam grass; format: in vivo, Brachiaria decumbens
Method in brief: as §1

[9] = system: blackgrass; test: Test B pre/postemergence blackgrass; format: in vivo, Alopecurus myosuroides
Method in brief: as §1

[10] = system: giant foxtail; test: Test B pre/postemergence giant foxtail; format: in vivo, Setaria faberii
Method in brief: as §1

[11] = system: rape; test: Test B pre/postemergence rape; format: in vivo, Brassica napus
Method in brief: as §1

[12] = system: corn; test: Test B pre/postemergence corn; format: in vivo, Zea mays
Method in brief: as §1

[13] = system: morningglory; test: Test B pre/postemergence morningglory; format: in vivo, Ipomoea hederacea
Method in brief: as §1

[14] = system: wheat; test: Test B pre/postemergence wheat; format: in vivo, Triticum aestivum
Method in brief: as §1

[15] = system: crabgrass; test: Test B pre/postemergence crabgrass; format: in vivo, Digitaria sanguinalis
Method in brief: as §1

[16] = system: wild oat; test: Test B pre/postemergence wild oat; format: in vivo, Avena fatua
Method in brief: as §1

[17] = Postemergence, Rate 62 g/ha, scale 0 to 10, 0 is no effect, 10 is complete control
[18] = Postemergence, Rate 250 g/ha, scale 0 to 10, 0 no effect, 10 complete control
[19] = Preemergence, Rate 62 g/ha, scale 0 to 10, 0 is no effect, 10 is complete control
[20] = Preemergence, Rate 125 g/ha, scale 0 to 10 (0 no effect, 10 complete control)
[21] = Preemergence, Rate 250 g/ha, scale of 0 to 10 where 0 is no effect and 10 is complete control
[22] = Preemergence, Rate 500 g/ha, scale 0 (no effect) to 10 (complete control)
[23] = Rate 125 g/ha, Postemergence, scale 0 to 10, 0 no effect, 10 complete control
[24] = Rate 500 g/ha, Postemergence, scale 0 to 10, 0 no effect, 10 complete control
[25] = Rate 125 g/ha, Pre-emergence, flood test species, scale 0 to 10 where 0 is no effect and 10 is complete control
[26] = Rate 250 g/ha, headed Pre-emergence (flood test species), scale 0 to 10 (0 no effect, 10 complete control)
[27] = Rate 500 g/ha, headed Pre-emergence (flood test species), scale 0 to 10 (0 no effect, 10 complete control)
[28] = Rate 2000 g/ha, Pre-emergence (as headed), scale 0 to 10
[29] = Rate 1000 g/ha, Pre-emergence (as headed), scale 0 to 10

Cc1cccc(C)c1-n1c(=O)on(C(=O)N(c2ccc(Cl)cc2)C(C)C)c1=O [Compound 47]
Redroot pigweed plant response rating [1, 17]: 0 | Redroot pigweed plant response rating [1, 18]: 0 | Plant response rating, Redroot pigweed [1, 19]: 0 | Plant response rating, Redroot pigweed [1, 20]: 0 | Plant response rating, Redroot pigweed [1, 21]: 0 | Redroot pigweed plant response rating [1, 22]: 0 | Redroot pigweed plant response rating [1, 23]: 0 | Redroot pigweed plant response rating [1, 24]: 2 | S. Flatsedge plant response rating ([2]; Pre-emergence, Rate 1000 g/ha, scale 0 to 10 (0 no effect, 10 complete control)): 2 | S. Flatsedge plant response rating [2, 25]: 0 | S. Flatsedge plant response rating [2, 26]: 2 | Plant response rating, S. Flatsedge [2, 27]: 2 | S. Flatsedge plant response rating [2, 28]: 0 | Bedstraw plant response rating [3, 17]: 0 | Bedstraw plant response rating [3, 18]: 6 | Plant response rating, Bedstraw [3, 20]: 0 | Plant response rating, Bedstraw [3, 21]: 0 | Bedstraw plant response rating [3, 22]: 0 | Bedstraw plant response rating [3, 23]: 3 | Nutsedge plant response rating ([4]; Rate 62 g/ha, scale 0 to 10, 0 is no effect, 10 is complete control): 0 | Nutsedge plant response rating ([4]; Rate 250 g/ha, scale 0 to 10, 0 no effect, 10 complete control): 0 | Plant response rating, Nutsedge ([4]; Rate 125 g/ha, scale 0 to 10 (0 no effect, 10 complete control)): 0 | Plant response rating, Nutsedge ([4]; Rate 250 g/ha, scale of 0 to 10 where 0 is no effect and 10 is complete control): 0 | Nutsedge plant response rating ([4]; Rate 125 g/ha, scale 0 to 10, 0 no effect, 10 complete control): 0 | Nutsedge plant response rating ([4]; Rate 500 g/ha, scale 0 to 10, 0 no effect, 10 complete control): 0 | Rice plant response rating [5, 25]: 0 | Rice plant response rating [5, 26]: 0 | Plant response rating, Rice [5, 27]: 0 | Rice plant response rating [5, 29]: 0 | Rice plant response rating [5, 28]: 0 | Sugarbeets plant response rating [6, 17]: 0 | Sugarbeets plant response rating [6, 18]: 0 | Plant response rating, Sugarbeets [6, 19]: 0 | Plant response rating, Sugarbeets [6, 20]: 0 | Plant response rating, Sugarbeets [6, 21]: 0 | Sugarbeets plant response rating [6, 22]: 0 | Sugarbeets plant response rating [6, 23]: 0 | Sugarbeets plant response rating [6, 24]: 0 | Barnyardgrass plant response rating [7, 25]: 0 | Barnyardgrass plant response rating [7, 26]: 0 | Plant response rating, Barnyardgrass [7, 27]: 1 | Barnyardgrass plant response rating [7, 29]: 6 | Barnyardgrass plant response rating ([7]; Rate 2000 g/ha, Pre-emergence (as headed), scale 0 to 10, 0 no effect, 10 complete control): 8 | B. signalgrass plant response rating [8, 17]: 0 | B. signalgrass plant response rating [8, 18]: 0 | Plant response rating, B. signalgrass [8, 19]: 0 | Plant response rating, B. signalgrass [8, 20]: 0 | Plant response rating, B. signalgrass [8, 21]: 0 | B. signalgrass plant response rating [8, 22]: 0 | B. signalgrass plant response rating [8, 23]: 0 | B. signalgrass plant response rating ([8]; Rate 500 g/ha, Postemergence, scale of 0 to 10 where 0 is no effect and 10 is complete control): 0 | Blackgrass plant response rating [9, 17]: 0 | Blackgrass plant response rating [9, 18]: 0 | Plant response rating, Blackgrass [9, 19]: 0 | Plant response rating, Blackgrass [9, 20]: 0 | Plant response rating, Blackgrass [9, 21]: 0 | Blackgrass plant response rating [9, 22]: 0 | Blackgrass plant response rating [9, 23]: 0 | Blackgrass plant response rating [9, 24]: 0 | Giant foxtail plant response rating [10, 17]: 0 | Giant foxtail plant response rating [10, 18]: 0 | Plant response rating, Giant foxtail [10, 19]: 0 | Plant response rating, Giant foxtail [10, 20]: 2 | Plant response rating, Giant foxtail [10, 21]: 3 | Giant foxtail plant response rating [10, 22]: 3 | Giant foxtail plant response rating [10, 23]: 0 | Giant foxtail plant response rating [10, 24]: 2 | Rape plant response rating [11, 17]: 0 | Rape plant response rating [11, 18]: 0 | Plant response rating, Rape [11, 19]: 0 | Plant response rating, Rape [11, 20]: 0 | Plant response rating, Rape [11, 21]: 0 | Rape plant response rating [11, 22]: 0 | Rape plant response rating [11, 23]: 0 | Rape plant response rating [11, 24]: 0 | Corn plant response rating [12, 17]: 0 | Corn plant response rating [12, 18]: 0 | Plant response rating, Corn [12, 19]: 0 | Plant response rating, Corn [12, 20]: 0 | Plant response rating, Corn [12, 21]: 0 | Corn plant response rating [12, 22]: 0 | Corn plant response rating [12, 23]: 0 | Corn plant response rating [12, 24]: 0 | Morningglory plant response rating [13, 17]: 1 | Morningglory plant response rating [13, 18]: 4 | Plant response rating, Morningglory [13, 19]: 0 | Plant response rating, Morningglory [13, 20]: 0 | Plant response rating, Morningglory [13, 21]: 0 | Morningglory plant response rating [13, 22]: 0 | Morningglory plant response rating [13, 23]: 2 | Morningglory plant response rating [13, 24]: 6 | Wheat plant response rating [14, 17]: 0 | Wheat plant response rating [14, 18]: 2 | Plant response rating, Wheat [14, 19]: 0 | Plant response rating, Wheat [14, 20]: 0 | Plant response rating, Wheat [14, 21]: 0 | Wheat plant response rating [14, 22]: 0 | Wheat plant response rating [14, 23]: 0 | Wheat plant response rating [14, 24]: 3 | Crabgrass plant response rating [15, 17]: 0 | Crabgrass plant response rating [15, 18]: 0 | Plant response rating, Crabgrass [15, 19]: 0 | Plant response rating, Crabgrass [15, 20]: 2 | Plant response rating, Crabgrass [15, 21]: 2 | Crabgrass plant response rating [15, 22]: 5 | Crabgrass plant response rating [15, 23]: 0 | Crabgrass plant response rating [15, 24]: 2 | Wild oats plant response rating [16, 17]: 0 | Wild oats plant response rating [16, 18]: 0 | Plant response rating, Wild oats [16, 20]: 0 | Plant response rating, Wild oats [16, 21]: 0 | Wild oats plant response rating [16, 22]: 0 | Wild oats plant response rating [16, 23]: 0 | Wild oats plant response rating [16, 24]: 3
